Marks after values point to notes of the source that are not given here.
Key:
[1] = test system: Rabbit Psoas myofibrils (skeletal myosin ATPase); assay: Myofibril ATPase assay, rabbit psoas (skeletal) myofibrils; format: biochemical; conditions: rabbit psoas myofibrils
Procedure, shortened: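 Myofibrils homogenized in Triton X-100 buffer were assayed in pH 7.0 PIPES with defined Ca2+/EGTA. Myosin-driven ADP formation was coupled to NADH oxidation, with depletion monitored at 340 nm. Each value is the concentration that lowers activity to 75% of vehicle or, for activators, raises it to 125%.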

[2] = target: T1, Porcine ventricle myofibrils (ventricular myosin ATPase) (Sus scrofa, UniProt P79293); assay: Myofibril ATPase assay, porcine ventricle myofibrils; format: biochemical, porcine (Yucatan minipigs); conditions: porcine ventricle myofibrils
T1 construct: Myofibrils from porcine cardiac muscle was isolated from the left ventricle of Yucatan minipigs; tissue Exemplar Genetics; host or cells: left ventricle of Yucatan minipigs, myofibrils prepared in house
Procedure, shortened: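 Test compounds acted on myofibrils isolated from the left ventricle of Yucatan minipigs. ADP formation was coupled via pyruvate kinase/lactate dehydrogenase to NADH oxidation, monitored kinetically at 340 nm over 75 min. Rates relative to vehicle were fitted with a 4-parameter logistic model, reported as Y75 (25% inhibition) or Y125 (activation) concentrations.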

[3] = test system: Porcine atria myofibrils (atrial myosin ATPase); assay: Myofibril ATPase assay, porcine atria myofibrils; format: biochemical; conditions: porcine atria myofibrils
Procedure, shortened: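 Values are Y75 (concentration cutting ATPase activity to 75% of vehicle) or Y125 (raising it to 125%), taken from 4-parameter logistic fits. Rates come from NADH disappearance at 340 nm in a PK/LDH-coupled assay with porcine atria myofibrils.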

[4] = Y75 value (75% activity relative to no compound)

T1 sequence (P79293 whole entry): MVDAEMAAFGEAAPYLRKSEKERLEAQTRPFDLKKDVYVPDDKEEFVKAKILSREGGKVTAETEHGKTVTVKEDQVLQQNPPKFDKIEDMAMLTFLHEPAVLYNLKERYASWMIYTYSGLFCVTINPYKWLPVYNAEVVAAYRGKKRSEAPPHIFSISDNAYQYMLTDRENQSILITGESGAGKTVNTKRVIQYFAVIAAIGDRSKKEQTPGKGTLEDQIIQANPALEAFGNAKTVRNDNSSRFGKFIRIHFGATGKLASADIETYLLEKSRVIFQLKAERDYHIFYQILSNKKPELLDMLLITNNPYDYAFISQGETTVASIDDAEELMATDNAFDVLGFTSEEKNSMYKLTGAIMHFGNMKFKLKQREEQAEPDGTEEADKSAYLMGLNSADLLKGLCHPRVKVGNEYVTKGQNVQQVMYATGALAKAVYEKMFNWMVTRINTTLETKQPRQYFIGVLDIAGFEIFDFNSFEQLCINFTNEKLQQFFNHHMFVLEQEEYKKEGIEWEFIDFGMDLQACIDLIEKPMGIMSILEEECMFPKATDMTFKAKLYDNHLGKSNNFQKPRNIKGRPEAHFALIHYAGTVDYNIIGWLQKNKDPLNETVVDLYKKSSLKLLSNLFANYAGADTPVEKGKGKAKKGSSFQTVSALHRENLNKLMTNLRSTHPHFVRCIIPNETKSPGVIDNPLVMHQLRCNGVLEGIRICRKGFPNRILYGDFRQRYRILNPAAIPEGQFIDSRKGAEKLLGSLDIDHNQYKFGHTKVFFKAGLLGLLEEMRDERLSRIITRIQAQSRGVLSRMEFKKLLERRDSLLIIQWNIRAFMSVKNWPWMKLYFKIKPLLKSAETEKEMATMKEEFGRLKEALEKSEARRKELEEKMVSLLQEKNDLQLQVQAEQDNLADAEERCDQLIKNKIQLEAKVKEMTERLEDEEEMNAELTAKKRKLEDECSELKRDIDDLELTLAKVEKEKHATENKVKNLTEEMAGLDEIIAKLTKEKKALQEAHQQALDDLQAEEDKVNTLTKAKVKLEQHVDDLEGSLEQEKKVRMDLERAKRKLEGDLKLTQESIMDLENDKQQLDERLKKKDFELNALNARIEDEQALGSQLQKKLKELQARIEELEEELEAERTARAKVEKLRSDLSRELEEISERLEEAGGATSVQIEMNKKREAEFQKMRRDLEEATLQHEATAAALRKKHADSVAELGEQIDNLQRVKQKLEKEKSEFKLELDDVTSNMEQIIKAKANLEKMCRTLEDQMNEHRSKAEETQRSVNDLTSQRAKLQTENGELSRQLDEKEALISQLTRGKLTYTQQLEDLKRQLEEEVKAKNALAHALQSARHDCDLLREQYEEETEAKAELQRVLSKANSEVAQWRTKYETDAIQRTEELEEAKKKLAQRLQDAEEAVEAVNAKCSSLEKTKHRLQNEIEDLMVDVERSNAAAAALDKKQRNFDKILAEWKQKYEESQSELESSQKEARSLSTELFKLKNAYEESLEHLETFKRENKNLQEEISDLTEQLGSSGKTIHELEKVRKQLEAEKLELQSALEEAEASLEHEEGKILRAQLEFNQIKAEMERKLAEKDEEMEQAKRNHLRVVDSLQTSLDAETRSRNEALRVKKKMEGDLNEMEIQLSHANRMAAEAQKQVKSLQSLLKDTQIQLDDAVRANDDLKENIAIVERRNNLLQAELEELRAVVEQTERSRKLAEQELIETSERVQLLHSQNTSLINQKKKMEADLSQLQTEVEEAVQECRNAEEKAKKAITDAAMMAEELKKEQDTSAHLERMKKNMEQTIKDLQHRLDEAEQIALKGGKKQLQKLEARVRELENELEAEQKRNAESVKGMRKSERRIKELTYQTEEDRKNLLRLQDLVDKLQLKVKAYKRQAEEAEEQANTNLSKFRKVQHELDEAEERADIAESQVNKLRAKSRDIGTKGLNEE

| SMILES | Skeletal EC25 ([1]; Y75 value (no ‡ mark)) [µM] | Ventricular EC25 ([2]; Y75 value (no ‡ mark)) [µM] | Atrial EC25 ([3]; Y75 value (no ‡ mark)) [µM] | Skeletal EC25 ([1]; Y75 value) [µM] | Ventricular EC25 ([2]; Y75 value) [µM] | Atrial EC25 [3, 4] [µM] | Skeletal EC25 (Y125 value, marked ‡) ([1]; Y125 value, not a Y75 value) | Atrial EC25 (Y125 value, marked ‡) ([3]; Y125 value (125% activity), not a Y75 value) |
| --- | --- | --- | --- | --- | --- | --- | --- | --- |
| O=C(Cc1cc2c(F)c(F)ccc2[nH]c1=O)N[C@@H]1COc2ncccc21 (single isomer, unassigned) [compound 63] | 1.55 | 62.72 | 0.42 | – | – | – | – | – |
| Cc1c(F)ccc2[nH]c(=O)c(CC(=O)N[C@@H](C)c3ncc(C#N)cc3F)c(C#N)c12 [compound 1150] | 0.04 | 0.05 | 0.05 | – | – | – | – | – |
| Cc1cc(C#N)ccc1[C@@H](C)NC(=O)Cc1c(O)c2cc(F)c(F)cc2[nH]c1=O [compound 1088] | 100.00 | 100.00 | 5.78 | – | – | – | – | – |
| Cc1c(C(C)C(=O)N[C@@H](C)c2ccc(F)cc2F)c(=O)[nH]c2ccnc(I)c12 (stereo partly drawn) [compound 349] | – | – | – | 0.13 | 5.41 | 0.76 | – | – |
| Cc1c(CC(=O)N[C@@H](C)c2ccc(C#N)cc2F)c(=O)[nH]c2ccc(F)c(C(F)(F)F)c12 [compound 38] | 0.02 | 0.06 | 0.03 | – | – | – | – | – |
| Cc1c(CC(=O)N[C@@H](CO)c2ccc(C#N)cc2F)c(=O)[nH]c2ccnc(C(F)(F)F)c12 (single isomer, unassigned) [compound 225] | – | – | – | 0.03 | 2.46 | 0.08 | – | – |
| C[C@@H](NC(=O)Cc1c(C(F)(F)F)c2c(C3CC3)nccc2[nH]c1=O)c1ccc(C#N)nn1 (single isomer, unassigned) [compound 3003] | – | – | – | – | 100.00 | – | 94.25‡ μM | 92.51‡ μM |
| Cc1c(C(F)(F)C(=O)N[C@@H](C)c2ncc(C#N)cc2F)c(=O)[nH]c2ccc(F)c(C#N)c12 (single isomer, unassigned) [compound 4836] | 0.02 | 0.15 | 0.17 | – | – | – | – | – |
| Cc1c(C2(C(=O)N[C@@H]3CCc4cc(C#N)cnc43)CC2)c(=O)[nH]c2ccc(F)cc12 (single isomer, unassigned) [compound 2503] | 100.00 | 100.00 | 100.00 | – | – | – | – | – |
| CCOc1nccc2[nH]c(=O)c([C@@H](C)C(=O)N[C@@H](C)c3ccc(F)cc3F)c(C(F)(F)F)c12 (single isomer, unassigned) [compound 416] | – | – | – | 0.46 | 100.00 | 100.00 | – | – |
| Cc1c(CC(=O)N[C@@H](CO)c2ncc(C#N)cc2F)c(=O)[nH]c2cnnc(C#N)c12 [compound 164] | – | – | – | 1.12 | 22.06 | 2.51 | – | – |
| COc1ccc([C@@H](C)NC(=O)Cc2c(C)c3c(C)nccc3[nH]c2=O)cn1 (single isomer, unassigned) [compound 290] | – | – | – | 100.00 | 100.00 | 100.00 | – | – |
| Cc1c(CC(=O)N[C@@H](C)c2ccc(F)cc2F)c(=O)[nH]c2ccncc12 [compound 448] | – | – | – | 0.17 | 7.29 | 0.65 | – | – |
| C[C@@H](NC(=O)Cc1cc2cc(F)c(F)cc2[nH]c1=O)c1cnc(C#N)cn1 [compound 1098] | 17.72 | 17.06 | 7.06 | – | – | – | – | – |

From patent US12448369B2 (Edgewise Therapeutics, Inc., priority 2023, dated 2025)
